Results as given in PubChem BioAssay AID463203 (Broad Institute, 2010).
Calls of active or inactive are those of the source.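 Rule for the calls: active = more than half of replicate measurements showing over 20% loss of kinase signal relative to plate controls; inconclusive = some but at most half of replicates over 20% loss; inactive = no replicate over 20% signal loss.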

Biological target: Glycogen synthase kinase-3 alpha (Homo sapiens) (UniProt P49840)
Assay: concentration-response blocking of human GSK3A – biochemical, luminescence, cell-free homogeneous, retest, dose response (AID 463203)
Settings: GSK-3 alpha enzyme, ADP-Glo luminescence, 60 min

Sequence of Glycogen synthase kinase-3 alpha (Homo sapiens) (P49840 whole entry, looked up): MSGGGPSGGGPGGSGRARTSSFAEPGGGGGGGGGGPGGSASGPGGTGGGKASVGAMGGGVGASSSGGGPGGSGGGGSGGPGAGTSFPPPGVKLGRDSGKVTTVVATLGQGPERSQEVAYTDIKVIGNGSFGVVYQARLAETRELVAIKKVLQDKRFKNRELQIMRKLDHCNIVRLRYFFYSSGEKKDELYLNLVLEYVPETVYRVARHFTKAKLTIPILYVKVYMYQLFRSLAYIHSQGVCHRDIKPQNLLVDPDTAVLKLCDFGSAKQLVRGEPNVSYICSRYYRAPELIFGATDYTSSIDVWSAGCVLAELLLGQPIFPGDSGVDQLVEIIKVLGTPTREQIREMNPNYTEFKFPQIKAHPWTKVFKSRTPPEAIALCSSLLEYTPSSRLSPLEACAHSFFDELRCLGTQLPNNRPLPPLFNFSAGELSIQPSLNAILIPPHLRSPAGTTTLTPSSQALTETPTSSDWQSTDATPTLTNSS

Row | Compound | AC50
1 | COC(=O)c1oc2ccc(Br)cc2c1NC(=O)c1ccccc1 | > 30 µM (inactive)
2 | COc1ccc(C2=Nn3c(nnc3-c3ccccc3)SC2)cc1OC | > 30 µM (inactive)
3 | Fc1ccccc1CSc1nnc(-c2cccnc2)o1 | > 30 µM (inactive)
4 | CC(C)c1onc(C(=O)N(C)C2CCCCC2)c1[N+](=O)[O-] | > 30 µM (inactive)
5 | Cc1nnc(SCC(=O)N2c3ccccc3CC2C)s1 (stereo not given) | > 30 µM (inactive)
6 | Cc1cccc(NC(=O)CSc2nnc([C@@H](N)Cc3c[nH]c4ccccc34)o2)c1C | > 30 µM (inactive)
7 | O=C1NC(=S)N/C1=C\c1ccc(N2CCOCC2)cc1 | > 30 µM (inactive)
8 | CC(=O)Nc1ccc(OC(=O)CC2SC(=O)NC2=O)cc1 (stereo not given) | > 30 µM (inactive)
9 | COc1ccc(CC(=O)N2CCOCC2)cc1OC | > 30 µM (inactive)
10 | O=C(NCc1ccc2c(c1)OCO2)c1cc(COc2c(F)cccc2F)on1 | > 30 µM (inactive)
11 | C#CCOCCOCCOCCNc1nc(N2CCN(C(=O)CCCCCCCCCCNC(=O)[C@H](CCCCN)n3cc(C)nn3)CC2)nc(N2CCN(C(=O)CCCCCCCCCCNC(=O)[C@@H]([C@H](C)CC)n3cc(CCCCCN)nn3)CC2)n1 | > 30 µM (inactive)
12 | Cc1ccc(CSCCNC(=O)c2ccc(C)cc2)cc1 | > 30 µM (inactive)
13 | CN1/C(=C\C=[N+](C)c2ccccc2)C(C)(C)c2ccccc21 | > 30 µM (inactive)
14 | COC(=O)c1c(NC(=O)CN2C(=O)NC3(CCc4ccccc4C3)C2=O)sc2c1CCCCC2 (stereo not given) | > 30 µM (inactive)
15 | Cc1onc(-c2ccccc2Cl)c1C(=O)Nc1ccc(-c2cn3cccnc3n2)cc1 | > 30 µM (inactive)
16 | NC(=O)c1oc2ccccc2c1NC(=O)c1ccc(F)cc1 | > 30 µM (inactive)
17 | Cn1c2ccc(Cl)cc2c2nc3ccccc3nc21 | > 30 µM (inactive)
18 | CC(=O)Oc1ccc2ccc(=O)oc2c1 | > 30 µM (inactive)
19 | COc1ccc(Nc2nc(-c3ccccc3)cs2)cc1 | > 30 µM (inactive)
20 | N#C/C(=N\Nc1cccc(F)c1)C(=O)C1CC1 | > 30 µM (inactive)
21 | O=C(N/N=C/c1ccc(O)c(O)c1)NC12CC3CC(CC(C3)C1)C2 | > 30 µM (inactive)
22 | Nc1ncnc2c1ncn2[C@@H]1O[C@H](CNCc2ccccc2)[C@@H](O)[C@H]1O | > 30 µM (inactive)
23 | Cc1cc(=O)[nH]c2c(C)c(Cl)ccc12 | > 30 µM (inactive)
24 | Cc1ccc(-n2nnnc2CSc2nnc(-c3ccc(O)cc3)o2)cc1 | 5.51 µM
25 | COC(=O)C1=C(C)NC(=O)NC1c1ccc2c(c1)OCO2 (stereo not given) | > 30 µM (inactive)
26 | Cc1ccc(C(=O)Nc2cccc(C(=O)NC3CCCCC3)c2)cc1 | > 30 µM (inactive)
27 | Nc1c(O)ccc2c1C(=O)c1ccccc1C2=O | 18.7 µM

Row | Compound | AC50
28 | c1ccc2c(c1)Sc1ccccc1-n1cnnc1-2 | > 30 µM (inactive)
29 | O=C(Nc1c(C(=O)C2CC2)oc2ccccc12)c1ccc(Cl)cc1 | > 30 µM (inactive)
30 | Clc1ccc(CSc2nncn2-c2ccc3c(c2)OCCO3)cc1 | > 30 µM (inactive)
31 | N#Cc1c(-c2ccccc2Cl)c2c([nH]c1=O)-c1ccccc1OC2 | > 30 µM (inactive)
32 | O=c1ccc2ccccc2o1 | > 30 µM (inactive)
33 | Cc1ccc(NC(=O)CSCc2ccco2)cc1 | > 30 µM (inactive)
34 | COc1ccc(-c2nnc(-c3ccccc3O)o2)cc1 | > 30 µM (inactive)
35 | COc1ccc2cc(C(N)=O)c(=Nc3ccccc3)oc2c1 | > 30 µM (inactive)
36 | CCn1c(SCc2nc3sc(C(=O)O)c(C)c3c(=O)[nH]2)nc2ccccc21 | 10.8 µM
37 | CSc1nnc([C@@H](N)Cc2c[nH]c3ccccc23)o1 | > 30 µM (inactive)
38 | Nc1ccc2c(c1)C(=O)c1ccccc1C2=O | > 30 µM (inactive)
39 | COc1ccc(-c2cc(=O)c3c(O)cc(O)cc3o2)cc1 | 4.21 µM
40 | CC(=O)c1sc(Nc2cccc(C)c2)nc1C | > 30 µM (inactive)
41 | COC(=O)c1ccc(CN2C(=O)NC(CC(C)C)C2=O)cc1 (stereo not given) | > 30 µM (inactive)
42 | COc1ccccc1-c1noc(CSc2nc(N)cc(=O)[nH]2)n1 | > 30 µM (inactive)
43 | Cc1csc(NC(=O)c2ccc3c(c2)OCO3)n1 | > 30 µM (inactive)
44 | CCC/C(=N/NC(=O)c1nnn(-c2nonc2N)c1CN1CCCCC1)c1ccccc1 | 18.7 µM
45 | O=C(CCc1nnc(-c2ccc3c(c2)OCO3)o1)N1CCC(c2ccc(F)cc2)C1 (stereo not given) | 10 µM
46 | COCCCNc1c2c(nc3nnnn13)CCCC2 | > 30 µM (inactive)
47 | CCOc1cc(C(c2c(C)[nH][nH]c2=O)c2c(C)[nH][nH]c2=O)ccc1O | > 30 µM (inactive)
48 | CCOC(=O)c1cc(-c2ccc(C)cc2)n(CCC(=O)NC(C)CC)c1C (stereo not given) | > 30 µM (inactive)
49 | C/C(=N\NC(=O)c1nnn(-c2nonc2N)c1-c1ccccc1)c1cccnc1 | 18.3 µM
50 | O=S(=O)(NCC1CCCO1)c1ccc(Cl)nc1 (stereo not given) | > 30 µM (inactive)
51 | COc1ccc2c3c(cccc13)OC2=O | > 30 µM (inactive)
52 | COC(=O)c1sc2cnccc2c1N | 24.8 µM
53 | COc1ccc([N+](=O)[O-])cc1NC(=O)CCN1CCN(CCO)CC1 | > 30 µM (inactive)
54 | CCCc1c(C(=O)N/N=C/C(C)=C/c2ccco2)nnn1-c1nonc1N | > 30 µM (inactive)

Row | Compound | AC50
55 | CC(=O)c1cc(-c2ccc(F)cc2)n(CCC(=O)Nc2cccc(C)n2)c1C | > 30 µM (inactive)
56 | COc1ccc(NC(=O)Nc2ccc(Br)c(C)c2)cc1 | > 30 µM (inactive)
57 | CC(C)(C)OC(=O)N1CCC(NC(=O)c2[nH]cnc2C(=O)Nc2ccccc2)CC1 | > 30 µM (inactive)
58 | CCOC(=O)c1cnc2c(C)c(Cl)ccc2c1N1CCN(CC)CC1 | > 30 µM (inactive)
59 | Oc1[nH]c2ccccc2c1N=Nc1ccccc1 | 13.9 µM
60 | CC(=O)Oc1cc2c3c(c1)/C(=C1/SC(=S)NC1=O)C(=O)N3C(C)(C)C=C2C | > 30 µM (inactive)
61 | Cc1ccc(OCC(=O)N2CCN(c3nnc(-c4ccccc4)c4ccccc34)CC2)cc1 | > 30 µM (inactive)
62 | COC1(OC)N=C(N)C2(C#N)C(c3cccc(Oc4ccccc4)c3)C12C#N (stereo not given) | > 30 µM (inactive)
63 | O=C(Nc1ccccc1-c1nnc(SCc2ccccc2Cl)o1)c1ccccc1 | > 30 µM (inactive)
64 | C#CCOCCOCCOCCNc1nc(N2CCOCC2)nc(N2CCN(C(=O)[C@H](CCC(=O)O)n3cc([C@@H](N)CCCCN)nn3)CC2)n1 | > 30 µM (inactive)
65 | CCOC(=O)c1cc(C)sc1NC(=O)C1CCC1 | > 30 µM (inactive)
66 | Cc1ccc2oc(=O)c3cnn(CC(=O)N4CCCCC4C)c3c2c1 (stereo not given) | > 30 µM (inactive)
67 | Cc1ccnc(NC(=O)CCC(=O)N(CC(=O)NCc2ccc(F)cc2)CC2CCCO2)c1 (stereo not given) | 27.9 µM
68 | Cc1nc(SCC(=O)NCC2CCCO2)c2c(C)c(C)sc2n1 (stereo not given) | > 30 µM (inactive)
69 | Cc1cc(C)c(OCC(O)CNC(C)(C)C)c(C)c1 (stereo not given) | > 30 µM (inactive)
70 | Cc1cc2nc(-c3cccnc3SCC(=O)NCc3ccco3)[nH]c2cc1C | > 30 µM (inactive)
71 | COc1cccc(CCNC(=O)c2cc(COc3c(F)cccc3F)on2)c1 | > 30 µM (inactive)
72 | C/C(=C(/CCO)SSCC1CCCO1)N(C=O)Cc1cnc(C)nc1N (stereo not given) | > 30 µM (inactive)
73 | Oc1[nH]c2ccc(Br)cc2c1N=Nc1ccc(F)cc1 | 7.48 µM
74 | Cc1ccc2nc(-c3ccncc3)[nH]c2c1 | > 30 µM (inactive)
75 | O=C(c1ccco1)N(Cc1ccc([N+](=O)[O-])cc1)c1ccc(Cl)cc1 | > 30 µM (inactive)
76 | CN(C)/N=C/c1cn(-c2ccccc2)nc1-c1cccnc1 | > 30 µM (inactive)
77 | O=C(NCCCN1CCOCC1)c1ccc(Cl)c([N+](=O)[O-])c1 | > 30 µM (inactive)
78 | CCOC(=O)c1nc2sc3c(c2c(=O)[nH]1)CCC(C)C3 (stereo not given) | > 30 µM (inactive)
79 | COc1ccc(N2CCOCC2)c(NC(=O)c2ccc(Br)o2)c1 | 8.71 µM
80 | Fc1ccc(Nc2ncnc3ccccc23)cc1 | > 30 µM (inactive)
81 | CCCCSc1nc(N)c(C#N)c(-c2cccs2)c1C#N | > 30 µM (inactive)

Row | Compound | AC50
82 | COc1ccccc1NC(=O)CSc1nnc(-c2ccccc2)o1 | > 30 µM (inactive)
83 | COc1cccc(C(=O)NCC(=O)OCC(=O)c2ccccc2)c1 | > 30 µM (inactive)
84 | COc1cccc(NC(=O)c2cnc[nH]2)c1 | > 30 µM (inactive)
85 | Cc1ccccc1Cn1c(-c2ccc(=O)[nH]c2)nc2ccccc21 | > 30 µM (inactive)
86 | Cc1ccc2cc(C#N)c(N3CCCN(C(=S)NCCCN(C)C)CC3)nc2c1 | > 30 µM (inactive)
87 | Cc1cccc(C)c1NC(=O)COC(=O)Cc1ccsc1 | > 30 µM (inactive)
88 | CC1(C)CC(=O)C(C(c2ccncc2)C2C(=O)CC(C)(C)CC2=O)C(=O)C1 | > 30 µM (inactive)
89 | O=C(CSc1nnc(-c2ccc(O)cc2)o1)Nc1cccc(O)c1 | 21.6 µM
90 | COc1ccc(NC(=O)CN(C)C2CCCCC2)c([N+](=O)[O-])c1 | > 30 µM (inactive)
91 | O=C(N/N=C/c1ccc(O)c(O)c1)C1CC1 | > 30 µM (inactive)
92 | Cc1ccc(N(C)C(=O)C2CCCN2S(=O)(=O)c2cccc3nsnc23)cc1 (stereo not given) | 29.8 µM
93 | COc1ccc(C(=O)Nc2nc(C)c(C)s2)cc1OC | > 30 µM (inactive)
94 | O=C(CSc1ccc2nnc(-c3ccccn3)n2n1)N1CCN(c2ccccc2)CC1 | > 30 µM (inactive)
95 | Cc1sc2ncnc(NCc3cccs3)c2c1C | > 30 µM (inactive)
96 | Cc1ccc(C)c(Sc2ccc(NC(=O)CCl)cc2)c1 | > 30 µM (inactive)
97 | COc1ccc(COC(=O)C2=C(C)NC(=O)NC2c2cccc(Br)c2)cc1 (stereo not given) | 16.9 µM
98 | COc1ccc(-c2noc(CSc3nc(N)c(-c4ccccc4)c(=O)[nH]3)n2)cc1 | > 30 µM (inactive)
99 | O=C(Nc1cccc(-c2nc3cccnc3s2)c1)c1cccnc1Cl | 8.59 µM
100 | O=C(O)c1cccc(Nc2nc(-c3cccnc3)nc3ccccc23)c1 | 12.5 µM
101 | COc1cc(C2c3sc(=O)[nH]c3SC3C4CCC(C4)C23)ccc1O (stereo not given) | 1.22 µM
102 | CCc1ccc(OCC(O)CNC(C)(C)C)cc1 (stereo not given) | > 30 µM (inactive)
103 | CCOC(=O)c1ccc(N2CSC3=C(C#N)C(c4ccc(OC)cc4OC)CC(=O)N3C2)cc1 (stereo not given) | > 30 µM (inactive)
104 | N#CCCn1cc(/C=N/O)c(-c2ccc(Cl)cc2)n1 | 21 µM
105 | CCOC(=O)c1cc(CC)sc1NC(=O)COC(=O)c1ccccn1 | > 30 µM (inactive)
